Test system: not listed separately
Assay: Cytotoxicity against human Hs578T cells assessed as cell viability after 72 hrs by MTT assay
Format: functional, cell-based
Conditions: Hs-578T

SMILES	IC50 [µM]
CC(=O)OC[C@H]1OC(n2cc(CNC3=C(Br)C(=O)c4ccccc4C3=O)nn2)[C@H](OC(C)=O)[C@@H](OC(C)=O)[C@@H]1OC(C)=O (stereo not given in full)	3.68
O=C1C=C(NCc2cn(C3=CC(=O)c4ccccc4C3=O)nn2)C(=O)c2ccccc21	5.68
O=C1C=C(n2cc(CNC3=C(Cl)C(=O)c4ccccc4C3=O)nn2)C(=O)c2ccccc21	4.68
O=C1C=C(n2cc(CNC3=C(Br)C(=O)c4ccccc4C3=O)nn2)C(=O)c2ccccc21	> 10
CC1(C)CC(Nc2ccc([N+](=O)[O-])cc2)C2=C(O1)C(=O)c1ccccc1C2=O (stereo not given)	5.95

Test system: MX1
Assay: Cytotoxicity against human MX1 cells assessed as cell viability after 72 hrs by MTT assay
Format: functional, cell-based
Conditions: MX1, 72 h

SMILES	IC50 [µM]
CC(=O)OC[C@H]1OC(n2cc(CNC3=C(Br)C(=O)c4ccccc4C3=O)nn2)[C@H](OC(C)=O)[C@@H](OC(C)=O)[C@@H]1OC(C)=O (stereo not given in full)	3.59
O=C1C=C(NCc2cn(C3=CC(=O)c4ccccc4C3=O)nn2)C(=O)c2ccccc21	3.7
O=C1C=C(n2cc(CNC3=C(Cl)C(=O)c4ccccc4C3=O)nn2)C(=O)c2ccccc21	4.02
O=C1C=C(n2cc(CNC3=C(Br)C(=O)c4ccccc4C3=O)nn2)C(=O)c2ccccc21	> 10
CC1(C)CC(Nc2ccc([N+](=O)[O-])cc2)C2=C(O1)C(=O)c1ccccc1C2=O (stereo not given)	5.52

Test system: MDA-MB-435
Assay: Cytotoxicity against human MDA-MB-435 cells assessed as cell viability after 72 hrs by MTT assay
Format: functional, cell-based
Conditions: MDA-MB-435, 72 h

SMILES	IC50 [µM]
CC(=O)OC[C@H]1OC(n2cc(CNC3=C(Br)C(=O)c4ccccc4C3=O)nn2)[C@H](OC(C)=O)[C@@H](OC(C)=O)[C@@H]1OC(C)=O (stereo not given in full)	2.67
O=C1C=C(NCc2cn(C3=CC(=O)c4ccccc4C3=O)nn2)C(=O)c2ccccc21	3.09
O=C1C=C(n2cc(CNC3=C(Cl)C(=O)c4ccccc4C3=O)nn2)C(=O)c2ccccc21	3.33
O=C1C=C(n2cc(CNC3=C(Br)C(=O)c4ccccc4C3=O)nn2)C(=O)c2ccccc21	> 10
CC1(C)CC(Nc2ccc([N+](=O)[O-])cc2)C2=C(O1)C(=O)c1ccccc1C2=O (stereo not given)	5.42

Test system: HL-60
Assay: Cytotoxicity against human HL60 cells assessed as cell viability after 72 hrs by MTT assay
Format: functional, cell-based
Conditions: HL-60, 72 h

SMILES	IC50 [µM]
CC(=O)OC[C@H]1OC(n2cc(CNC3=C(Br)C(=O)c4ccccc4C3=O)nn2)[C@H](OC(C)=O)[C@@H](OC(C)=O)[C@@H]1OC(C)=O (stereo not given in full)	1.19
O=C1C=C(NCc2cn(C3=CC(=O)c4ccccc4C3=O)nn2)C(=O)c2ccccc21	0.8
O=C1C=C(n2cc(CNC3=C(Cl)C(=O)c4ccccc4C3=O)nn2)C(=O)c2ccccc21	3.42
O=C1C=C(n2cc(CNC3=C(Br)C(=O)c4ccccc4C3=O)nn2)C(=O)c2ccccc21	> 10
CC1(C)CC(Nc2ccc([N+](=O)[O-])cc2)C2=C(O1)C(=O)c1ccccc1C2=O (stereo not given)	4.26

Test system: V79
Assay: Cytotoxicity against chinese hamster V79 cells assessed as cell viability after 72 hrs by MTT assay
Format: cell-based
Conditions: Cricetulus griseus, V79, 72 h

SMILES	IC50 [µM]
CC(=O)OC[C@H]1OC(n2cc(CNC3=C(Br)C(=O)c4ccccc4C3=O)nn2)[C@H](OC(C)=O)[C@@H](OC(C)=O)[C@@H]1OC(C)=O (stereo not given in full)	3.59
O=C1C=C(NCc2cn(C3=CC(=O)c4ccccc4C3=O)nn2)C(=O)c2ccccc21	6.21
O=C1C=C(n2cc(CNC3=C(Cl)C(=O)c4ccccc4C3=O)nn2)C(=O)c2ccccc21	7.1
O=C1C=C(n2cc(CNC3=C(Br)C(=O)c4ccccc4C3=O)nn2)C(=O)c2ccccc21	> 10
CC1(C)CC(Nc2ccc([N+](=O)[O-])cc2)C2=C(O1)C(=O)c1ccccc1C2=O (stereo not given)	1.61

Test system: PC-3
Assay: Cytotoxicity against human PC3 cells assessed as cell viability after 72 hrs by MTT assay
Format: functional, cell-based
Conditions: PC-3, 72 h

SMILES	IC50 [µM]
CC(=O)OC[C@H]1OC(n2cc(CNC3=C(Br)C(=O)c4ccccc4C3=O)nn2)[C@H](OC(C)=O)[C@@H](OC(C)=O)[C@@H]1OC(C)=O (stereo not given in full)	> 7
O=C1C=C(NCc2cn(C3=CC(=O)c4ccccc4C3=O)nn2)C(=O)c2ccccc21	5.02
O=C1C=C(n2cc(CNC3=C(Cl)C(=O)c4ccccc4C3=O)nn2)C(=O)c2ccccc21	5.42
O=C1C=C(n2cc(CNC3=C(Br)C(=O)c4ccccc4C3=O)nn2)C(=O)c2ccccc21	> 10
CC1(C)CC(Nc2ccc([N+](=O)[O-])cc2)C2=C(O1)C(=O)c1ccccc1C2=O (stereo not given)	5.79

Test system: MCF7
Assay: Cytotoxicity against human MCF7 cells assessed as cell viability after 72 hrs by MTT assay
Format: functional, cell-based
Conditions: MCF7, 72 h

SMILES	IC50 [µM]
CC(=O)OC[C@H]1OC(n2cc(CNC3=C(Br)C(=O)c4ccccc4C3=O)nn2)[C@H](OC(C)=O)[C@@H](OC(C)=O)[C@@H]1OC(C)=O (stereo not given in full)	2.91
O=C1C=C(NCc2cn(C3=CC(=O)c4ccccc4C3=O)nn2)C(=O)c2ccccc21	3.67
O=C1C=C(n2cc(CNC3=C(Cl)C(=O)c4ccccc4C3=O)nn2)C(=O)c2ccccc21	7.76
O=C1C=C(n2cc(CNC3=C(Br)C(=O)c4ccccc4C3=O)nn2)C(=O)c2ccccc21	> 10
CC1(C)CC(Nc2ccc([N+](=O)[O-])cc2)C2=C(O1)C(=O)c1ccccc1C2=O (stereo not given)	7.16

Test system: SF-295
Assay: Cytotoxicity against human SF295 cells assessed as cell viability after 72 hrs by MTT assay
Format: functional, cell-based
Conditions: SF-295, 72 h

SMILES	IC50 [µM]
CC(=O)OC[C@H]1OC(n2cc(CNC3=C(Br)C(=O)c4ccccc4C3=O)nn2)[C@H](OC(C)=O)[C@@H](OC(C)=O)[C@@H]1OC(C)=O (stereo not given in full)	2.83
O=C1C=C(NCc2cn(C3=CC(=O)c4ccccc4C3=O)nn2)C(=O)c2ccccc21	3.82
O=C1C=C(n2cc(CNC3=C(Cl)C(=O)c4ccccc4C3=O)nn2)C(=O)c2ccccc21	5.55
O=C1C=C(n2cc(CNC3=C(Br)C(=O)c4ccccc4C3=O)nn2)C(=O)c2ccccc21	> 10
CC1(C)CC(Nc2ccc([N+](=O)[O-])cc2)C2=C(O1)C(=O)c1ccccc1C2=O (stereo not given)	5.95

Test system: OVCAR-8
Assay: Cytotoxicity against human OVCAR8 cells assessed as cell viability after 72 hrs by MTT assay
Format: functional, cell-based
Conditions: OVCAR-8, 72 h

SMILES	IC50 [µM]
CC(=O)OC[C@H]1OC(n2cc(CNC3=C(Br)C(=O)c4ccccc4C3=O)nn2)[C@H](OC(C)=O)[C@@H](OC(C)=O)[C@@H]1OC(C)=O (stereo not given in full)	2.8
O=C1C=C(NCc2cn(C3=CC(=O)c4ccccc4C3=O)nn2)C(=O)c2ccccc21	2.86
O=C1C=C(n2cc(CNC3=C(Cl)C(=O)c4ccccc4C3=O)nn2)C(=O)c2ccccc21	6.02
O=C1C=C(n2cc(CNC3=C(Br)C(=O)c4ccccc4C3=O)nn2)C(=O)c2ccccc21	> 10
CC1(C)CC(Nc2ccc([N+](=O)[O-])cc2)C2=C(O1)C(=O)c1ccccc1C2=O (stereo not given)	6.66

Test system: PBMC
Assay: Cytotoxicity against human PBMC assessed as cell viability after 72 hrs by MTT assay
Format: cell-based
Conditions: not given

SMILES	IC50 [µM]
CC(=O)OC[C@H]1OC(n2cc(CNC3=C(Br)C(=O)c4ccccc4C3=O)nn2)[C@H](OC(C)=O)[C@@H](OC(C)=O)[C@@H]1OC(C)=O (stereo not given in full)	4.76
O=C1C=C(NCc2cn(C3=CC(=O)c4ccccc4C3=O)nn2)C(=O)c2ccccc21	6.77
O=C1C=C(n2cc(CNC3=C(Cl)C(=O)c4ccccc4C3=O)nn2)C(=O)c2ccccc21	10.2
O=C1C=C(n2cc(CNC3=C(Br)C(=O)c4ccccc4C3=O)nn2)C(=O)c2ccccc21	> 10
CC1(C)CC(Nc2ccc([N+](=O)[O-])cc2)C2=C(O1)C(=O)c1ccccc1C2=O (stereo not given)	2.01

Test system: HCT-116
Assay: Cytotoxicity against human HCT116 cells assessed as cell viability after 72 hrs by MTT assay
Format: functional, cell-based
Conditions: HCT-116, 72 h

SMILES	IC50 [µM]
CC(=O)OC[C@H]1OC(n2cc(CNC3=C(Br)C(=O)c4ccccc4C3=O)nn2)[C@H](OC(C)=O)[C@@H](OC(C)=O)[C@@H]1OC(C)=O (stereo not given in full)	4.39
O=C1C=C(NCc2cn(C3=CC(=O)c4ccccc4C3=O)nn2)C(=O)c2ccccc21	> 12
O=C1C=C(n2cc(CNC3=C(Cl)C(=O)c4ccccc4C3=O)nn2)C(=O)c2ccccc21	6.65
O=C1C=C(n2cc(CNC3=C(Br)C(=O)c4ccccc4C3=O)nn2)C(=O)c2ccccc21	> 10
CC1(C)CC(Nc2ccc([N+](=O)[O-])cc2)C2=C(O1)C(=O)c1ccccc1C2=O (stereo not given)	5.66

Test system: not listed separately
Assay: Cytotoxicity against human HCT8 cells assessed as cell viability after 72 hrs by MTT assay
Format: functional, cell-based
Conditions: HCT-8, 72 h

SMILES	IC50 [µM]
CC(=O)OC[C@H]1OC(n2cc(CNC3=C(Br)C(=O)c4ccccc4C3=O)nn2)[C@H](OC(C)=O)[C@@H](OC(C)=O)[C@@H]1OC(C)=O (stereo not given in full)	2.2
O=C1C=C(NCc2cn(C3=CC(=O)c4ccccc4C3=O)nn2)C(=O)c2ccccc21	2.7
O=C1C=C(n2cc(CNC3=C(Cl)C(=O)c4ccccc4C3=O)nn2)C(=O)c2ccccc21	7.08
O=C1C=C(n2cc(CNC3=C(Br)C(=O)c4ccccc4C3=O)nn2)C(=O)c2ccccc21	> 10
CC1(C)CC(Nc2ccc([N+](=O)[O-])cc2)C2=C(O1)C(=O)c1ccccc1C2=O (stereo not given)	4.97

Test system: L929
Assay: Cytotoxicity against mouse L929 cells assessed as cell viability after 72 hrs by MTT assay
Format: ADME, cell-based
Conditions: L929, 72 h

SMILES	IC50 [µM]
CC(=O)OC[C@H]1OC(n2cc(CNC3=C(Br)C(=O)c4ccccc4C3=O)nn2)[C@H](OC(C)=O)[C@@H](OC(C)=O)[C@@H]1OC(C)=O (stereo not given in full)	3.66
O=C1C=C(NCc2cn(C3=CC(=O)c4ccccc4C3=O)nn2)C(=O)c2ccccc21	5.21
O=C1C=C(n2cc(CNC3=C(Cl)C(=O)c4ccccc4C3=O)nn2)C(=O)c2ccccc21	6.83
O=C1C=C(n2cc(CNC3=C(Br)C(=O)c4ccccc4C3=O)nn2)C(=O)c2ccccc21	> 10
CC1(C)CC(Nc2ccc([N+](=O)[O-])cc2)C2=C(O1)C(=O)c1ccccc1C2=O (stereo not given)	1.37

Test system: DU-145
Assay: Cytotoxicity against human DU145 cells assessed as cell viability after 72 hrs by MTT assay
Format: functional, cell-based
Conditions: DU-145, 72 h

SMILES	IC50 [µM]
CC(=O)OC[C@H]1OC(n2cc(CNC3=C(Br)C(=O)c4ccccc4C3=O)nn2)[C@H](OC(C)=O)[C@@H](OC(C)=O)[C@@H]1OC(C)=O (stereo not given in full)	4.07
O=C1C=C(NCc2cn(C3=CC(=O)c4ccccc4C3=O)nn2)C(=O)c2ccccc21	5.34
O=C1C=C(n2cc(CNC3=C(Cl)C(=O)c4ccccc4C3=O)nn2)C(=O)c2ccccc21	4.92
O=C1C=C(n2cc(CNC3=C(Br)C(=O)c4ccccc4C3=O)nn2)C(=O)c2ccccc21	> 10
CC1(C)CC(Nc2ccc([N+](=O)[O-])cc2)C2=C(O1)C(=O)c1ccccc1C2=O (stereo not given)	6.13

Reference: ChEMBL document CHEMBL3112408, “1,2,3-triazole-, arylamino- and thio-substituted 1,4-naphthoquinones: potent antitumor activity, electrochemical aspects, and bioisosteric replacement of C-ring-modified lapachones” (Bioorg Med Chem, 2014)
